Results on five compounds are retold here after patent publication US20210340178A1, “NONAPEPTIDE PREVENTING INCREASED HYPERPERMEABILITY OF VASCULAR ENDOTHELIUM” (FEDERALNOYE GOSUDARSTVENNOE BUDGETNOE UCHREZHDENIE …, priority 2018, published 2021).

As usually defined, the LD50 is the dose expected to kill half of the subjects tested. Broadly, the IC50 is the midpoint of a concentration-inhibition curve.

In data set [1] the test system is EA.hy926 endothelial cell monolayer. As to the kind of experiment: Thrombin-mediated FITC-dextran permeability through endothelial cell monolayer. Type of data set: cell-based. The settings on record: peptide 100 μM, 60 min preincubation; thrombin 100 nM; 70 kDa FITC-dextran. The procedure:
FIG. 3. The thrombin-mediated FITC-dextran permeability through the EA.hy926 endothelial cell monolayer in the presence of myosin light chain kinase peptide inhibitors. Thrombin (100 nM) was added at 0 min, the cells were preincubated for 60 min with MLCK peptide inhibitors (100 μM). Data are presented as mean±SD, n=5. p<0.05 for all data points within the 20-180 min time course range as compared to the thrombin-stimulated control.
Effects of the claimed peptide (PIK7), the prototype (PIK2), and the analogue (MLC11-19) on the endothelial permeability was assayed in a model of FITC-dextran diffusion through the endothelial monolayer as described in Example 3.
Cells were grown in 24-well plates (Greiner Bio-one, Austria) equipped with special inserts to form inner (upper) chambers with a porous bottom (the pore diameter of 0.4 μm, pore density of 10^8/cm^2) in DMEM until monolayer was formed (3-4 days). Successful monolayer was checked by measuring FITC-dextran diffusion for 1 hour through inserts with cell monolayers vs inserts without cells (‘blank’ inserts). Experiments were performed in triplicates when tight monolayers were formed. On the day of experiment, the cells were deprived for 1 h in DMEM supplemented with MLCK inhibitors or without inhibitors (control). After deprivation, FITC-dextran was added to the upper compartment to a final concentration of 0.05 mg/ml. In 30 and 60 min, a 10-μ1 aliquot was withdrawn from the lower compartment and mixed with 100 μl phosphate buffered saline pH 7.3 in a 96-well plate to estimate the endothelial monolayer baseline permeability. […] During the next 3 hrs, every 30 min, aliquots were taken from the lower compartment, and intensity of FITC fluorescence was measured using a Victor 3X plate reader (Perkin Elmer, USA) to plot the dynamics of the FITC fluorescence changes.
As shown, 100 nM thrombin induces the endothelial hyperpermeability response as reflected by an increase in 70 kDa FITC-dextran diffusion through the endothelial monolayer and an incremental increase in the fluorescence in the lower compartment of the diffusion chamber. […]

The conditions of data set [2]: rabbit, in vivo, iv.
Experimental: (§3) PIK2 dose of 5 mg/kg was calculated individually for each rabbit and administered into marginal ear vein in a final volume of 1.7-1.9 mL in sterile physiological saline. Stock concentration of the tested substance was 10 mg/mL.
(§4) During the 24-hrs testing period, the overall health status and behavior were monitored (appetite, motion activity, hair coat condition).
(§5) Before injection of test substances (baseline) and 4 hrs and 24 hrs after the injection, the following parameters were tested in whole venous blood samples (3.0-3.5 mL) collected from a marginal ear vein red blood cell (RBC) count, hematocrit, hemoglobin level, mean RBC volume, mean corpuscular hemoglobin, total leukocyte, lymphocyte, and granulocyte counts and their percentages, platelet count, and mean platelet volume. In parallel, the following biochemical parameters were measured in serum total protein, bilirubin, urea, creatinine, glucose, total cholesterol, triglycerides, and activities of alkaline phosphatase, lactate dehydrogenase, aspartate aminotransferase, and alanine aminotransferase. Blood cell count was performed using an Abacus junior vet (Austria) hematological cell counter; biochemical studies were performed using a Targa-2000 (Italy) instrument.
Data set [3] relates to endothelial hyperpermeability. Conditions: cited from earlier work.
Data set [4] can be described thus: in vivo. Conditions: male, Chinchilla, rabbit, 5 mg/kg.
Experimental: as §3, §4, §5
Data set [5] concerns Chinchilla rabbits. Description: Tolerance of a single intravenous injection in Chinchilla rabbits. The settings on record: i.v. 5 mg/kg.
Experimental: as §3, §4, §5
For data set [6] the following is noted: cited from earlier work.
The test system of data set [7] is BALB/c mice. Description: Acute toxicity in mice, single injection. The class given is in vivo. The procedure:
(§1) The study was conducted in 82 BALB/c mice (both males and females, body weight 18-24 g) obtained from the animal facility of the Scientific Center for Biomedical Technologies of the Federal Medico-Biological Agency of the Russian Federation (SCBMT). The animals were certified and otherwise healthy. The animals were kept in T-3 cages (5-10 animals per cage) with artificial 12 hrs light-dark cycles and 16× per hour forced air ventilation, temperature of 20-22° C. and 50-65% humidity on wood chips sterilized by hot air. The animals had free access to drinking water and PK-120-1 mouse cubes (GOST P50258-92; Laboratorsnab LLC, Russia).
(§2) PIK2 and PIK7 peptides were dissolved in water and administered to mice as a single intraperitoneal injection. The animals were followed for 14 days after peptide injections. An increasing dosage scheme was applied where each tested dose surpassed the previous dose by 50%. The lowest dose of the active substance was determined that caused animal death.

Data set [8] in a line: Acute toxicity in mice, single injection. The class given is in vivo. Conditions: mouse, in vivo. The protocol: as §1, §2
Data set [9] has as its system lung edema in rats. The settings on record: cited from earlier work.
The target of data set [10] is smooth-muscle myosin light-chain kinase. The settings on record: Hunt et al., 1989; cited from earlier work.
Data set [11] in a line: Peptide half-lives in human plasma in vitro (1H-NMR spectroscopy). The class given is in vitro ADME. Conditions: human, plasma, 1H-NMR, 37° C., peptide 3 mg/ml; read-out: T1/2, half-life in human plasma in vitro. The procedure:
Whole blood (100 mL) was collected from healthy donors to 50-mL tubes containing 5 mL of a preservative (130 mM citrate in phosphate buffered saline (PBS), pH 7.4). The blood was incubated for 15-20 min at room temperature followed by centrifugation at 1500 g for 15 min at 18° C. The supernatants were transferred to clear tubes and centrifuged as above. Dry NaBr was added to the plasma (280 mg per 1 mL of plasma). After dissolution of NaBr, the plasma (approx. 30 mL) was transferred to centrifuge tubes (Type 45Ti rotor, Beckman, USA) and layered with 20 mL of a solution (specific mass of […]), which was prepared as follows—11.42 g of NaCl and 100 mg of ethylenediaminetetraacetic acid (EDTA) were dissolved in distilled water in a final volume of 1 L (pH 7.4) and 281.44 g of NaBr was added. The plasma was centrifuged at 40,000 rpm for 48 hrs. The upper dark-yellow fraction containing lipoproteins and the colorless buffer fraction were discarded leaving approx. 1-cm high buffer above the apparent plasma border. Portions of plasma obtained from one donor were pooled and dialyzed for 36 hrs against 4 L of PSB free of Ca^2+ and Mg^2+(MP Biomedicals, USA) in dialysis bags with 12-14 kDa pore sizes. The dialysis procedure was repeated twice with fresh buffer changed every 24 hrs. After the dialysis, the plasma was centrifuged at 25,000 rpm (Type 45Ti rotor, Beckman, USA) for 15 min at 4° C. The supernatant fraction was collected and lyophilized. The dry matter was dissolved in D2O in a final volume equal to the plasma volume before NaBr was added, lyophilized again, dissolved in the same volume of D2O, and stored in 1-mL aliquots at −20° C. before use.
^1H-NMR spectroscopy was employed to analyze relative degradation of PIK7 (the claimed peptide) and MLC11-19 (the structural analogue) in human plasma. ^1H-NMR spectroscopy allows simultaneous direct monitoring the amounts of original full-length peptide and its fragments during the course of enzymatic hydrolysis (Isakova et al., 1986). Stability of a peptide, its degradation pathway(s) and a half-life estimate are available from a comparison of spectra obtained at different time points after the addition of a peptide to plasma. ^1H-NMR spectra were obtained using a WM-500 spectrometer (Bruker, Germany) at 37° C. Chemical shifts in ^1H-NMR spectra were measured relative to an internal standard (2,2-dimethyl-2-silapentane-5-sulfonate sodium salt). The signals were referenced by the double-resonance method. The resonances from peptide protons were identified by the differential spectroscopy method, i.e. the spectrum of blood plasma was subtracted from each spectrum obtained in the presence of peptide of interest. Peptide concentrations were 3 mg/ml.
These indicate the peptide N-terminus degradation. […] Therefore, the claimed peptide has an increased life-span in plasma that allows for long-lasting maintenance of its effective concentrations necessary to decrease the endothelial hyperpermeability under emergency conditions. Moreover, an increased life-time allows attaining the desired therapeutic effect with lower (as compared to homologues) peptide concentrations.

Data set [12] deals with MLC phosphorylation in neutrophils. The settings on record: Chilcoat et al., 2008; cited from earlier work.
For data set [13], the target named is MLCK (Homo sapiens, UniProt Q15746). The settings on record: in vitro; Sekridova et al., 2010 / RU 2402565; cited from earlier work.

“Also recorded” adds a separate entry of the source. Where two headings read alike, the source gives them in different places. Non-standard residues stand in square brackets, D forms with d. Residues, ends and D or L forms follow the SMILES beside them. NMeR = CN[C@@H](CCCNC(=N)N)C(=O)O

On to `CN[C@@H](CCCNC(=N)N)C(=O)N[C@@H](CCCCN)C(=O)N[C@@H](CCCCN)C(=O)N[C@@H](Cc1ccc(O)cc1)C(=O)N[C@@H](CCCCN)C(=O)N[C@@H](Cc1ccc(O)cc1)C(=O)N[C@@H](CCCNC(=N)N)C(=O)N[C@H](CCCNC(=N)N)C(=O)N[C@@H](CCCCN)C(N)=O` [PIK2, H—(N—Me)-Arg^1-Lys-Lys-Tyr-Lys-Tyr-Arg^7-D-Arg^8-Lys-NH2] (H-[NMeR]KKYKYR[dR]K-NH2), for which the “effect on thrombin-induced FITC-dextran hyperpermeability” value in data set [1] was “completely abolished the FITC-dextran hyperpermeability; also recorded: effectively abolished FITC-dextran hyperpermeability”. In addition, the 50% lethal dose (LD50) is at most 5 mg/kg in [2] and 18 mg/kg in [8] (after single intravenous injection (as printed in b7), read-out: LD50 in mice). For the same compound, the “effect on thrombin-mediated endothelial hyperpermeability in vitro” value in data set [3] (peptide 20 μM) is listed as “completely abolished the thrombin-mediated endothelial hyperpermeability”. Moreover, in data set [4], the 50% lethal dose (LD50) at 24 h was 5 mg/kg. In addition, in [5] (group of 4), the mortality entry was “two rabbits died on the 7th and 10th minute”. The “clinical signs after injection” value in [5] (second minute after injection) is reported as “irregular breathing, shortness of breath, muscular stiffness, prone position with straighten extremities”. Moreover, in data set [6] (Khapchaev et al., 2016), the “T1/2, half-life in human plasma in vitro” value is listed as above 540 min. Further, the “stability, fold higher as compared to PIK1” value in [6] (RU 2493164) is 4 fold. For the same compound, in [7] (BALB/c mice, single intraperitoneal injection, followed 14 days), the “lowest dose of the active substance that caused animal death” value amounted to 27 mg/kg. Also, the “signs after a toxic dose” value in data set [7] (mice, single intraperitoneal injection of a toxic dose) is “movement retardation and death within the following 24 hrs”. The compound further gave an LD50 at 14 days in data set [8] (both sexes, BALB/c, intraperitoneal, mice, Table 3) of 18 mg/kg. The “effect on endothelial hyperpermeability response and lung edema” value in [9] was “abrogation of the endothelial hyperpermeability response and lung edema in rats”.
Take “H-D-Lys-Lys-Arg-Ala-Ala-Arg-NH2 (H-[dK]KRAAR-NH2; SMILES C[C@H](NC(=O)[C@H](C)NC(=O)[C@H](CCCNC(=N)N)NC(=O)[C@H](CCCCN)NC(=O)[C@H](N)CCCCN)C(=O)N[C@@H](CCCNC(=N)N)C(N)=O) [RLC 11-16 hexapeptide with N-terminal L-Lys substituted with D-Lys]”: in data set [10], the concentration for half-maximal inhibition (IC50) was 180 µM.
“H-KKRAARATS-NH2 [MLC11-19, H-Lys-Lys-Arg-Ala-Ala-Arg-Ala-Thr-Ser-NH2]”: the half-life in data set [11] is 32 min. Besides, the “effect on thrombin-induced FITC-dextran hyperpermeability” value in [1] is listed as “completely abolished the FITC-dextran hyperpermeability; also recorded: effectively abolished FITC-dextran hyperpermeability”. In [12], the “effect on MLC phosphorylation in neutrophils” value is recorded as “decreases MLC phosphorylation in neutrophils”.
For “H-L-Lys-Lys-Arg-Ala-Ala-Arg-NH2 (H-KKRAAR-NH2)”, in data set [10], the IC50 is 22 µM.
For the compound “H-MeArg^1-Lys-Lys-Tyr-Lys-Tyr-Arg-Arg-Lys-NH2 (H-[NMeR]KKYKYRRK-NH2) [PIK1, L-PIK modified at the N-terminal amino acid]”, the “inhibition of thrombin-mediated endothelial hyperpermeability” value in data set [3] (peptide 100 μM) is 1.6 fold. Moreover, the “half-life in human plasma in vitro, fold higher as compared to L-PIK” value in data set [6] (RU 2402565) is listed as around 3 fold. The “inhibitory activity compared to L-PIK” value in data set [13] is listed as “comparable to that of L-PIK”.
